US20060069132A1, “Azolecarboxamide herbicides” (priority 2004, published 2006)

Columns and labels:
morningglory = assay: Test C pre-/postemergence herbicide test; assay type: in vivo, Ipomoea coccinea; parameters: key to Plant response rating, Morningglory: 0 = no effect, 100 = complete control; details: preemergence
Procedure, shortened: (§1)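 Seeds were planted and sprayed preemergence with test chemicals in a non-phytotoxic solvent mixture containing surfactant; postemergence treatments went onto plants 2 to 18 cm tall (1- to 4-leaf stage). After 12 to 14 days in a greenhouse, injury was rated visually against untreated controls on a 0–100 scale.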

woolly cupgrass = assay: Test C pre-/postemergence herbicide test; assay type: in vivo, Eriochloa villosa; details: preemergence
Procedure, shortened: as §1

cocklebur = assay: Test C pre-/postemergence herbicide test; assay type: in vivo, Xanthium strumarium; details: for Plant response rating, Cocklebur: preemergence
Procedure, shortened: as §1

goosegrass = assay: Test C pre-/postemergence herbicide test; assay type: in vivo, Eleusine indica; details: preemergence
Procedure, shortened: as §1

barnyardgrass = assay: Test C flooded paddy test; assay type: in vivo, Echinochloa crus-galli
Procedure, shortened: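 Postemergence sprays applied to plants 2 to 18 cm tall (1- to 4-leaf stage); paddy species grown to 2-leaf stage under flooding. After 12 to 14 days in greenhouse, visual rating versus untreated controls on 0–100 scale (0 no effect, 100 complete control).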

giant foxtail = assay: Test C pre-/postemergence herbicide test; assay type: in vivo, Setaria faberi; details: preemergence
Procedure, shortened: as §1

velvetleaf = assay: Test C pre-/postemergence herbicide test; assay type: in vivo, Abutilon theophrasti; details: preemergence
Procedure, shortened: as §1

yellow nutsedge = assay: Test C pre-/postemergence herbicide test; assay type: in vivo, Cyperus esculentus; details: preemergence
Procedure, shortened: as §1

kochia = assay: Test C pre-/postemergence herbicide test; assay type: in vivo, Kochia scoparia; details: preemergence
Procedure, shortened: as §1

corn = assay: Test C pre-/postemergence herbicide test; assay type: in vivo, Zea mays; details: preemergence
Procedure, shortened: as §1

soybean = assay: Test C pre-/postemergence herbicide test; assay type: in vivo, Glycine max; details: preemergence
Procedure, shortened: as §1

bermudagrass = assay: Test C pre-/postemergence herbicide test; assay type: in vivo, Cynodon dactylon; details: for Plant response rating, Bermudagrass: preemergence
Procedure, shortened: as §1

[1] = 125 g ai/ha, scale 0 (no effect) to 100 (complete control), visual, 12 to 14 days
[2] = 500 g ai/ha, scale 0 to 100 (0 no effect, 100 complete control), visual, 12 to 14 days
[3] = Preemergence, 500 g ai/ha, scale 0 to 100, 0 no effect, 100 complete control

CCN(C)C(=O)c1ccc(F)c(NC(=O)C2CC(C(C)(C)C)=NN2CC)c1 (racemic) [Compound 307]
Plant response rating, Morningglory (morningglory; 62 g ai/ha, scale 0 to 100): 0 | Plant response rating, Morningglory (morningglory; [1]): 10 | Plant response rating, Morningglory (morningglory; 250 g ai/ha, scale 0-100): 10 | Plant response rating, Morningglory (morningglory; [2]): 15 | Plant response rating, Cupgrass, Woolly (woolly cupgrass; 62 g ai/ha, scale 0 to 100): 5 | Plant response rating, Cupgrass, Woolly (woolly cupgrass; [1]): 40 | Plant response rating, Cupgrass, Woolly (woolly cupgrass; 250 g ai/ha, scale 0-100): 70 | Plant response rating, Cupgrass, Woolly (woolly cupgrass; [2]): 85 | Plant response rating, Cocklebur (cocklebur; 62 g ai/ha, scale 0 to 100): 0 | Plant response rating, Cocklebur (cocklebur; [1]): 30 | Plant response rating, Cocklebur (cocklebur; 250 g ai/ha, scale 0-100): 35 | Cocklebur plant response rating (cocklebur; [3]): 75 | Plant response rating, Goosegrass (goosegrass; 62 g ai/ha, scale 0 to 100): 90 | Plant response rating, Goosegrass (goosegrass; [1]): 95 | Plant response rating, Goosegrass (goosegrass; 250 g ai/ha, scale 0-100): 100 | Plant response rating, Goosegrass (goosegrass; [2]): 100 | Barnyardgrass plant response rating (barnyardgrass; 62 g ai/ha, scale 0 to 100 (0 no effect, 100 complete control)): 30 | Barnyardgrass plant response rating (barnyardgrass; 125 g ai/ha, scale 0 to 100 (0 no effect, 100 complete control)): 65 | Barnyardgrass plant response rating (barnyardgrass; 250 g ai/ha, scale of 0 to 100, 0 is no effect, 100 is complete control): 80 | Plant response rating, Barnyardgrass (barnyardgrass; 500 g ai/ha, visual rating after 12 to 14 days, scale 0 to 100 (0 no effect, 100 complete control)): 95 | Plant response rating, Foxtail, Giant (giant foxtail; 62 g ai/ha, scale 0 to 100): 70 | Plant response rating, Foxtail, Giant (giant foxtail; [1]): 85 | Plant response rating, Foxtail, Giant (giant foxtail; 250 g ai/ha, scale 0-100): 100 | Plant response rating, Foxtail, Giant (giant foxtail; [2]): 100 | Plant response rating, Velvetleaf (velvetleaf; 62 g ai/ha, scale 0 to 100): 70 | Plant response rating, Velvetleaf (velvetleaf; 250 g ai/ha, scale 0-100): 100 | Plant response rating, Velvetleaf (velvetleaf; [2]): 100 | Plant response rating, Nutsedge, Yellow (yellow nutsedge; 62 g ai/ha, scale 0 to 100): 5 | Plant response rating, Nutsedge, Yellow (yellow nutsedge; [1]): 20 | Plant response rating, Nutsedge, Yellow (yellow nutsedge; 250 g ai/ha, scale 0-100): 50 | Plant response rating, Nutsedge, Yellow (yellow nutsedge; [2]): 50 | Plant response rating, Kochia (kochia; 62 g ai/ha, scale 0 to 100): 100 | Plant response rating, Kochia (kochia; [1]): 100 | Plant response rating, Kochia (kochia; 250 g ai/ha, scale 0-100): 100 | Plant response rating, Kochia (kochia; [2]): 100 | Plant response rating, Corn (corn; 62 g ai/ha, scale 0 to 100): 0 | Plant response rating, Corn (corn; [1]): 20 | Plant response rating, Corn (corn; 250 g ai/ha, scale 0-100): 30 | Plant response rating, Corn (corn; [2]): 45 | Plant response rating, Soybean (soybean; 62 g ai/ha, scale 0 to 100): 40 | Plant response rating, Soybean (soybean; 250 g ai/ha, scale 0-100): 80 | Plant response rating, Soybean (soybean; [2]): 100 | Plant response rating, Bermudagrass (bermudagrass; 62 g ai/ha, scale 0 to 100, 0 no effect, 100 complete control): 90 | Plant response rating, Bermudagrass (bermudagrass; [1]): 100 | Plant response rating, Bermudagrass (bermudagrass; 250 g ai/ha, scale 0-100): 100 | Bermudagrass plant response rating (bermudagrass; [3]): 100
